Assay results reported in US20240270712A1, “BENZIMIDAZOLE COMPOUND OR SALT THEREOF, CANINE FILARIASIS CONTROL AGENT CONTAINING SAME, AND METHOD OF USE THEREOF” (NIHON NOHYAKU CO., LTD., priority 2021, published 2024).

System: L-3 stage larvae of canine filariae (Dirofilaria immitis)
Test: Impact evaluation test on growth of canine filariae
Type: cell-based
Conditions: 168 h, read-out: growth inhibition rate (growth from L3-stage larvae to L4-stage larvae)

SMILES: FC(F)(F)C(F)(F)COc1ccc(-c2nc3cc(Br)c(Br)cc3[nH]2)cn1 [Compound 1-5, 5,6-dibromo-2-(6-(2,2,3,3,3-pentafluoropropyloxy)pyridin-3-yl)benzimidazole]
- inhibition at 50 ppm: ≥ 50%
